Test results as given in ChEMBL document CHEMBL3091387, “DPMA, a deoxypodophyllotoxin derivative, induces apoptosis and anti-angiogenesis in non-small cell lung cancer A549 cells” (Bioorg Med Chem Lett, 2013).
Activity calls are given as the source filed them. No cut-off for these calls is given here.

Experiments:
A549 [1] = assay: Induction of apoptosis in human A549 cells assessed as late apoptotic cells at 5 uM after 24 hrs by annexin V-FITC/propidium iodide staining-based flow cytometric analysis (reference value: 0.65%); type: functional
A549 [2] = assay: Induction of apoptosis in human A549 cells assessed as dead cells at 0.5 uM after 24 hrs by annexin V-FITC/propidium iodide staining-based flow cytometric analysis (reference value: 0.69%); type: functional
A549 [3] = assay: Induction of apoptosis in human A549 cells assessed as early apoptotic cells at 1 uM after 24 hrs by annexin V-FITC/propidium iodide staining-based flow cytometric analysis (reference value: 0.18%); type: functional
A549 [4] = assay: Induction of apoptosis in human A549 cells assessed as late apoptotic cells at 0.5 uM after 24 hrs by annexin V-FITC/propidium iodide staining-based flow cytometric analysis (reference value: 0.65%); type: functional
A549 [5] = assay: Upregulation of p53 protein expression in human A549 cells by Western blot analysis; type: functional, cell-based; details: TDE = time-dependent effect
A549 [6] = assay: Induction of apoptosis in human A549 cells assessed as increase in cleaved caspase-3 protein expression at 1 uM after 24 hrs by immunofluorescence assay; type: functional, cell-based
A549 [7] = assay: Induction of apoptosis in human A549 cells assessed as cell shrinkage at 0.5 to 1 uM after 48 hrs by Hoechst 33258 staining-based phase contrast microscopic analysis; type: functional
A549 [8] = assay: Induction of apoptosis in human A549 cells assessed as dead cells at 5 uM after 24 hrs by annexin V-FITC/propidium iodide staining-based flow cytometric analysis (reference value: 0.69%); type: functional
A549 [9] = assay: Induction of apoptosis in human A549 cells assessed as early apoptotic cells at 0.5 uM after 24 hrs by annexin V-FITC/propidium iodide staining-based flow cytometric analysis (reference value: 0.18%); type: functional
A549 [10] = assay: Induction of apoptosis in human A549 cells assessed as dead cells at 1 uM after 24 hrs by annexin V-FITC/propidium iodide staining-based flow cytometric analysis (reference value: 0.69%); type: functional
A549 [11] = assay: Induction of apoptosis in human A549 cells assessed as nuclear fragmentation at 0.5 to 1 uM after 48 hrs by Hoechst 33258 staining-based phase contrast microscopic analysis; type: functional, cell-based
A549 [12] = assay: Induction of apoptosis in human A549 cells assessed as inhibition of Bcl-2 protein expression at 1 uM after 24 hrs by immunofluorescence assay; type: functional, cell-based
A549 [13] = assay: Induction of apoptosis in human A549 cells assessed as late apoptotic cells at 1 uM after 24 hrs by annexin V-FITC/propidium iodide staining-based flow cytometric analysis (reference value: 0.65%); type: functional
A549 [14] = assay: Induction of apoptosis in human A549 cells at 0.5 to 1 uM by Hoechst 33258 staining-based phase contrast microscopic analysis; type: functional, cell-based; details: TDE = time-dependent effect
A549 [15] = assay: Induction of apoptosis in human A549 cells assessed as nuclear fragmentation dispersed throughout cytoplasm at 1 uM after 36 hrs by DAPI staining-based indirect immunofluorescence assay; type: functional, cell-based
[16] = Cytotoxicity activity human MSC assessed as cell viability at 0.01 to 1 uM after 48 hrs by MTT assay
A549 [17] = assay: Upregulation of cdc-2 protein expression in human A549 cells by Western blot analysis; type: functional, cell-based; details: TDE = time-dependent effect
A549 [18] = assay: Induction of apoptosis in human A549 cells assessed as increase in apoptotic cells after 24 hrs by annexin V-FITC/propidium iodide staining-based flow cytometric analysis; type: functional, cell-based
A549 [19] = assay: Induction of apoptosis in human A549 cells assessed as increase in Bax protein expression at 1 uM after 24 hrs by immunofluorescence assay; type: functional, cell-based
A549 [20] = assay: Cytotoxicity against human A549 cells assessed as cell viability at 0.2 to 1 uM by MTT assay; type: functional, cell-based; details: TDE = time-dependent effect
Tubulin (Homo sapiens) = Tubulin (Homo sapiens) (UniProt P68371+Q9H4B7+P0DPH7+P68366+Q13509+Q71U36+P04350+Q3ZCM7+P07437+P68363+Q9BQE3+Q6PEY2+Q13885+Q9BVA1+Q9BUF5); assay: Binding affinity to tubulin in human A549 cells assessed as inhibition of microtubule network formation at 1 uM after 12 to 36 hrs by indirect immunofluorescence assay; type: cell-based
HUVEC = assay: Antiangiogenic activity in HUVEC assessed as inhibition of VEGF-induced tube formation at 0.5 to 1 uM after 12 hrs by phase contrast inverted microscopic analysis; type: functional, cell-based; details: Homo sapiens
A549 [21] = assay: Downregulation of phosphorylated cdc-2 protein expression in human A549 cells by Western blot analysis; type: functional, cell-based; details: TDE = time-dependent effect
A549 [22] = assay: Induction of ROS generation in human A549 cells after 24 hrs by DCFH-DA dye-based laser confocal microscopic analysis; type: functional, cell-based
A549 [23] = assay: Induction of apoptosis in human A549 cells assessed as nuclear condensation at 0.5 to 1 uM after 48 hrs by Hoechst 33258 staining-based phase contrast microscopic analysis; type: functional, cell-based
A549 [24] = assay: Induction of apoptosis in human A549 cells assessed as cell shrinkage at 1 uM after 36 hrs by DAPI staining-based indirect immunofluorescence assay; type: functional
A549 [25] = assay: Induction of apoptosis in human A549 cells at 0.5 to 5 uM by annexin V-FITC/propidium iodide staining-based flow cytometric analysis; type: functional, cell-based; details: TDE = time-dependent effect
A549 [26] = assay: Induction of apoptosis in human A549 cells after 48 hrs by Hoechst 33258 staining-based phase contrast microscopic analysis; type: functional, cell-based
A549 [27] = assay: Cytotoxicity against human A549 cells assessed as cell viability after 48 hrs by MTT assay; type: functional, cell-based
A549 [28] = assay: Induction of apoptosis in human A549 cells assessed as early apoptotic cells at 5 uM after 24 hrs by annexin V-FITC/propidium iodide staining-based flow cytometric analysis (reference value: 0.18%); type: functional
A549 [29] = assay: Induction of apoptosis in human A549 cells assessed as nuclear condensation dispersed throughout cytoplasm at 1 uM after 36 hrs by DAPI staining-based indirect immunofluorescence assay; type: functional, cell-based
A549 [30] = assay: Upregulation of cyclin B1 protein expression in human A549 cells by Western blot analysis; type: functional, cell-based; details: TDE = time-dependent effect

COc1cc([C@@H]2c3cc4c(cc3C[C@H]3COC(=O)[C@@H]32)OCO4)cc(OC)c1OC(=O)N[C@H](CCSC)C(N)=O
Activity (A549 [1]): 27.54% | Activity (A549 [2]): 2.76% | Activity (A549 [3]): 9.28% | Activity (A549 [4]): 6.11% | Activity (A549 [5]): tde | Activity (A549 [6]): Active | Activity (A549 [7]): Active | Activity (A549 [8]): 23.43% | Activity (A549 [9]): 6.22% | Activity (A549 [10]): 15.73% | Activity (A549 [11]): Active | inhibition (A549 [12]): Active | Activity (A549 [13]): 13.83% | Activity (A549 [14]): tde | Activity (A549 [15]): Active | Activity [16]: Non-toxic | Activity (A549 [17]): tde | Activity (A549 [18]): Dose-dependent effect | Activity (A549 [19]): Active | Activity (A549 [20]): tde | inhibition (Tubulin (Homo sapiens)): Active | inhibition (HUVEC): Active | Activity (A549 [21]): tde | Activity (A549 [22]): Dose-dependent effect | Activity (A549 [23]): Active | Activity (A549 [24]): Active | Activity (A549 [25]): tde | Activity (A549 [26]): Dose-dependent effect | Activity (A549 [27]): Dose-dependent effect | Activity (A549 [28]): 18.41% | Activity (A549 [29]): Active | Activity (A549 [30]): tde
